Source: US7666898B2, “Multivalent indole compounds and use thereof as phospholipase-A2 inhibitors” (Ilypsa, Inc., priority 2005, dated 2010)

Legend:
[1] = system: LDL receptor knockout mice (B6.129S7-Ldlrtm1Her); assay: LDL receptor knockout mouse model (Example 15); type: in vivo; settings: low fat control diet D12328, 25 or 90 mg/kg/d, vs low fat diet alone
Description: Mice lack an enzyme found in humans, cholesterol ester transfer protein (CETP), which is responsible for the transfer of cholesterol from high density lipoproteins (HDL) to the ApoB-containing lipoproteins such as very low density lipoproteins (VLDL) and low density lipoproteins (LDL). Consequently, LDL cholesterol levels in wild-type mice are very low compared to those seen in humans. The low density lipoprotein receptor (LDLR) is involved with clearing LDL and lipoprotein remnants containing apoE. If the LDLR is inactivated, LDL cholesterol levels rise to levels seen in humans. On a normal rodent diet, the LDL cholesterol levels in LDLR deficient mice are elevated compared to wild-type mice. If the LDLR deficient mice are fed a Western-type diet containing elevated levels of fats and cholesterol, then the total cholesterol and LDL cholesterol levels become highly elevated and can exceed 1000 mg/dL and 300 mg/dL, respectively. This model was used to investigate the effects of indole and indole-related Test Articles. Avandia (rosiglitazone) and Zetia (ezetimibe) were used as control test articles.
Male LDL receptor knockout mice (B6.129S7-Ldlrtm1Her) were obtained from Jackson Labs (Bar Harbor, Me.). […] Diet and water was provided ad libitum throughout the course of the study. Animals were acclimated for at least seven days, and then randomized by body weight into fourteen groups of seven animals each. Each group of animals was placed on diets with and without Test Articles as described in Table 13. All diets other than Laboratory Rodent Diet 5001 were provided by Research Diets (New Brunswick, N.J.).
In these studies and the accompanying figures, Diet D12328 from Research Diets is referred to as the “Low Fat” or Control diet, while Diet D12079B from Research Diets is referred to as the “Western” diet. Groups 1-7 were fed diet D12328 that contained either no drug (Group 1) or varying amounts of Test Articles (Groups 2-7). Groups 8-14 were fed diet D12079 that contained either no drug (Group 8) or varying amounts of Test Articles (Groups 9-14). The Test Article content was calculated such that ad libitum consumption by the animals would deliver doses (in mg of Test Article per Kg animal weight per day) approximating those listed in Table 13.
Animals were maintained on the diets for eight weeks. Body weights were recorded weekly. Blood was drawn within 1-2 hrs of lights-on, without fasting. The serum was analyzed for total cholesterol, LDL cholesterol, HDL cholesterol, triglycerides (TG), free fatty acid (FFA) and lysophospholipid (LPC) content.
Statistical analyses were performed using GraphPad Prism 4.03. (GraphPad Software, Inc., San Diego, Calif.). Two sets of statistical analyses were performed. […]

[2] = system: C57BL/6J mouse model of obesity; assay: Mouse diet-induced obesity model (Example 14); type: in vivo; settings: low fat control diet D12328, 25 or 90 mg/kg/d, vs low fat diet alone
Description: The high-fat diet-fed C57BL/6J mouse model of human diabetes, originally introduced by Surwit and colleagues (Surwit, R S, et al. (1988) “Diet-induced type II diabetes in C57BL/6J mice”, Diabetes 37: 1163-1167) is a widely accepted, clinically relevant, polygenic model that induces obesity, dyslipidemia, glucose- and insulin-resistance as early as 3 weeks after commencing the high fat diet (Winzell, M S and Ahren, B (2004) “The high-fat diet-fed mouse: a model for studying mechanisms and treatment of impaired glucose tolerance and type 2 diabetes”, Diabetes 53 Suppl 3: S215-219). This model was used to investigate the effects of indole and indole-related Test Articles. Avandia (rosiglitazone) was used as a control Test Article.
Female C57Black/6J mice (5-6 weeks old) were obtained from Jackson laboratories (Bar Harbor, Me.). […] Diet and water was provided ad libitum throughout the course of the study. Animals were acclimated for at least seven days, and then randomized by weight into twelve groups of eight animals each. Each group of animals was placed on diets with and without Test Articles as described in Table 12. All diets other than Laboratory Rodent Diet 5001 were provided by Research Diets (New Brunswick, N.J.).
In these studies and the accompanying figures, Diet D12328 from Research Diets is referred to as the “Low Fat” or Control diet/chow, while Diet D12331 from Research Diets is referred to as the “High Fat” diet. Groups 1-6 were fed diet D12328 that contained either no drug (Group 1) or varying amounts of Test Articles (Groups 2-6). Groups 7-12 were fed diet D12331 that contained either no drug (Group 7) or varying amounts of Test Articles (Groups 8-12). The Test Article content was calculated such that ad libitum consumption by the animals would deliver doses (in mg of Test Article per kg animal weight per day) approximating those listed in Table 12.
Animals were maintained on the diets for up to eleven weeks. Body weights were recorded weekly. Blood was drawn within 1-2 hrs of lights-on. without fasting. The serum was analyzed for glucose, total cholesterol, triglycerides (TG) and lysophospholipid (LPC) content.
Statistical analyses were performed using GraphPad Prism 4.03. (GraphPad Software, Inc., San Diego, Calif.). Two sets of statistical analyses were performed. First, the Low Fat Chow, no treatment group was compared by student's two-tailed T-test against the High Fat, High Sucrose diet, no treatment group. […] Second, all treatment groups on the High Fat, High Sucrose diet were compared to the no-treatment group on that diet by 1-way ANOVA, followed by a Dunnett's post-test.

[3] = Mouse pharmacokinetic study (Example 13); settings: for bioavailability: male, CD-1, mouse, in vivo, po, 30 mg/kg
Description: The plasma exposure of male CD-1 mice to indole and indole-related test articles (TAs) following intravenous (IV, 3 mg/kg) and oral (PO, 30 mg/kg) routes of administration was measured. This model was used to investigate the bioavailability of indole and indole-related TAs in mouse.
Two groups (N=18 and 27) of male CD-1 mice were used for the study.
The components were mixed by vortexing and sonicating in a warming bath for 60 minutes. Animals were fasted overnight prior to start of the study. On study day (1), formulations were sonicated for an hour to make sure that no visible particles were present prior to dosing, or if present were evenly distributed in suspension. Formulated test article were stirred continuously during dosing.
All animals were weighed on study day (1) and the body weights were recorded and used for dose calculation. […] Blood samples (0.5 mL) were collected at specified time intervals into labeled, yellow-capped Microtainer tubes. The tubes were centrifuged (8,000×g, 10 min). Serum was then pipetted off into labeled Eppendorf® tubes and frozen at −80° C. Clinical observations were recorded as needed.
Analysis of serum samples was performed by LC/MS/MS (Waters Quattro Premier, Milford, Mass.). Areas under curves (AUC) were calculated using Graphpad Prism Version 4. Bioavailability was calculated using the following equation: (Bioavailability)=(AUC0-t, oral/AUC0-t, iv)×(Doseiv/Doseoral)×100 where AUC0-t=total area under curve at the last measurable time point

[4] = Toxicology, 5-day daily oral gavage; type: in vivo, mice; settings: 5 consecutive days
Description: The purpose of this study was to evaluate the toxicity of indole and indole-related Test Articles when administered daily via oral gavage to mice for 5 consecutive days.
Assessment of toxicity was based on mortality; clinical signs, body weight, food consumption, clinical pathology, and macroscopic pathology data.

[5] = target: human pancreatic secreted PLA2 (hps PLA2) (Homo sapiens, UniProt P04054); settings: reported literature data; cited from earlier work
Chain of human pancreatic secreted PLA2 (hps PLA2) (P04054 23-148): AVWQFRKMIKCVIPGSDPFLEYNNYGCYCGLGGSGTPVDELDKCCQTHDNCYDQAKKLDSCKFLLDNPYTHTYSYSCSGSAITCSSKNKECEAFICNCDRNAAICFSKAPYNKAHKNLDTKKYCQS

[6] = target: porcine pancreatic secreted PLA2 (pps PLA2) (Sus scrofa, UniProt P00592); settings: reported literature data; cited from earlier work
Chain of porcine pancreatic secreted PLA2 (pps PLA2) (P00592 23-146): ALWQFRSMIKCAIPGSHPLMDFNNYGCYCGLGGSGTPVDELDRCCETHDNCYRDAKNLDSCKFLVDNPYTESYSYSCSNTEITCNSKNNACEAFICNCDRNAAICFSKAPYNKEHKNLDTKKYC

[7] = target: T1, human non-pancreatic PLA2 (hnp PLA2) (Homo sapiens, UniProt P14555); settings: reported literature data; cited from earlier work
T1 sequence (P14555 21-144): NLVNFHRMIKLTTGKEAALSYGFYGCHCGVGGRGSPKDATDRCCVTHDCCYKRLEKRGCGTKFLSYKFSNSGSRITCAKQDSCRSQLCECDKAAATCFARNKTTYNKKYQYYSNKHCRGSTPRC

[8] = target: T2, mouse group 1B PLA2 (mps PLA2) (Mus musculus, UniProt Q9Z0Y2); assay: Fluorimetric PLA2 inhibition assay, mouse (Example 8); type: biochemical; settings: read-out: ILYPSA % inhibition at 15 μM mps PLA2
T2 construct: made in house; host or cells: E. coli
T2 sequence (Q9Z0Y2 23-146): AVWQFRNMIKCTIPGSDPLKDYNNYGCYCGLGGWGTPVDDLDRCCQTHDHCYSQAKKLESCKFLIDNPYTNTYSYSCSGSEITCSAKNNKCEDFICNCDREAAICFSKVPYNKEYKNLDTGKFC
Description: (§1) In this example, a fluorimetric assay procedure was used to evaluate the indole and indole-related compounds of the invention as inhibitors of group 1B phospholipase A2 (PLA2) from human, mouse and porcine.
(§2) In general, this assay used a phosphatidylmethanol substrate with a pyrene fluorophore on the terminal end of the sn-2 fatty acyl chain. Without being bound by theory, close proximity of the pyrenes from neighboring phospholipids in a phospholipid vesicle caused the spectral properties to change relative to that of monomeric pyrene. Bovine serum albumin was present in the aqueous phase and captured the pyrene fatty acid when it is liberated from the glycerol backbone owing to the PLA2-catalyzed reaction. […] The effect of a given inhibitor and inhibitor concentration on human, mouse and porcine phospholipase was determined.
(§3) Recombinant human and mouse group 1B PLA2 were cloned and expressed in E. coli as insoluble inclusion bodies. The inclusion bodies were isolated and purified by sonicating cell pellet in lysis buffer (50 mM Tris-HCl pH 7.0, 250 mM NaCl, 0.5% Triton 100), centrifugation at 12,000×g, and washing three times in washing buffer (20 mM Tris-HCl pH 7.0, 250 mM NaCl, 0.5% Triton 100). Then the inclusion bodies were dissolved in dissolving buffer (50 mM Tris-HCl pH 7.0, 250 mM NaCl, 6 M Guanidine-HCl, 1 mM DTT) and dialyzed four times against 10 volumes of refolding buffer (20 mM Tris-HCl pH 7.0, 250 mM NaCl, 0.5M Guanidine-HCl, 5% (w/w) Glycerol, 2 mM reduced glutathione and 0.4 mM oxidized glutathione) at 4° C. The correctly refolded proteins were concentrated using Amicon Stirred cell under nitrogen pressure (<70 psi) and dialyzed against 10 volumes of 50 mM Tris-HCl pH 7.0, 250 mM NaCl and 5% (w/w) glycerol. Human and mouse group 1B PLA2 were further purified by High S ion exchange and gel filtration columns.
(§4) The following reagents were prepared: • 1. PPyrPM stock solution (1 mg/ml) in toluene:isopropanol (1:1) • 2. […]
(§5) The following procedure was performed to evaluate the inhibitory potency of the evaluated compounds. • 1. […]

[9] = target: T3, human group 1B PLA2 (hps PLA2) (Homo sapiens, UniProt P04054); assay: Fluorimetric PLA2 inhibition assay, human (Example 8); type: biochemical; settings: read-out: ILYPSA % inhibition at 15 μM hps PLA2
T3 construct: made in house; host or cells: E. coli
T3 sequence (P04054 23-148): as the sequence (P04054 23-148) above
Description: as §1, §2, §3, §4, §5

## Cc1c(C(=O)C(N)=O)c2c(OCC(=O)NS(=O)(=O)CCCC(=O)O)cccc2n1Cc1ccccc1 [ILY-IV-40, 4-[2-(3-Aminooxalyl-1-benzyl-2-methyl-1H-indol-4-yloxy)-acetylsulfamoyl]-butyric acid]
[1]
  effect in animals fed a low fat control diet containing test article: No or little effect
[2]
  effect in animals fed a low fat control diet containing test article: No or little effect
[3]; PO 30 mg/kg vs IV 3 mg/kg, CD-1 mice, serum LC/MS/MS
  Bioavailability (%): 0.50%
[4]
  clinical pathology data, treated groups vs vehicle control group: no differences

## Cc1c(C(=O)C(N)=O)c2c(OCC(=O)O)cccc2n1CCCCCCCCCCCCOc1ccccc1-c1ccccc1OCCCCCCCCCCCCn1c(C)c(C(=O)C(N)=O)c2c(OCC(=O)O)cccc21 [ILY-v-37, [3-Aminooxalyl-1-(12-{2′-[12-(3-aminooxalyl-4-carboxymethoxy-2-methyl-indol-1-yl)-dodecyloxy]-biphenyl-2-yloxy}-dodecyl)-2-methyl-1H-indol-4-yloxy]-acetic acid]
[4]
  clinical pathology data, treated groups vs vehicle control group: no differences

## 2,2′,2″-(1,1′,1″-(12,12′,12″-(benzene-1,3,5-triyltris(oxy))tris(dodecane-12,1-diyl))tris(3-(2-amino-2-oxoacetyl)-2-methyl-1H-indole-4,1-diyl))tris(oxy)triacetic acid [ILY-v-32]
[1]
  effect in animals fed a low fat control diet containing test article: No or little effect
[2]
  effect in animals fed a low fat control diet containing test article: No or little effect
[4]
  clinical pathology data, treated groups vs vehicle control group: no differences

## NC(=O)Cc1c(Br)n(Cc2ccccc2)c2ccc(OCCCC(=O)O)cc12
[5]
  IC50: 15.9 µM
[6]
  IC50: 2.86 µM

## CCc1c(C(=O)C(N)=O)c2c(OCC(=O)O)cccc2n1Cc1ccccc1-c1ccccc1
[7]
  IC50: 0.004 ± 0.001 µM
[5]
  IC50: 0.062 µM

## CCc1c(CC(N)=O)c2cc(SCCCC(=O)O)ccc2n1Cc1ccccc1
[5]
  IC50: 16 µM

## Cc1c(C(=O)C(N)=O)c2c(/C=C/C(=O)O)cccc2n1Cc1ccccc1
[5]
  IC50: > 100 µM

## Cc1c(C(=O)C(N)=O)c2c(OCC(=O)O)cccc2n1CCCCCCCCCCCCOc1ccccc1OCCCCCCCCCCCCn1c(C)c(C(=O)C(N)=O)c2c(OCC(=O)O)cccc21 [ILY-v-27, [3-Aminooxalyl-1-(12-{2-[12-(3-aminooxalyl-4-carboxymethoxy-2-methyl-indol-1-yl)-dodecyloxy]-phenoxy}-dodecyl)-2-methyl-1H-indol-4-yloxy]-acetic acid]
[3]
  bioavailability: 1.49%

## Cc1c(CC(N)=O)c2cc(CCCC(=O)O)ccc2n1Cc1ccccc1
[5]
  IC50: 94 µM

## Cc1c(CC(=O)NN)c2cc(OCCCC(=O)O)ccc2n1Cc1ccccc1
[5]
  IC50 (μM) hps PLA2: no activity
[6]
  IC50 (μM) pps PLA2: no activity

## Cc1c(C(=O)C(N)=O)c2c(OC(Br)(C(N)=O)C(F)(F)F)cccc2n1Cc1ccccc1 (centres unmarked) [ILY-IV-53, 2-(3-Aminooxalyl-1-benzyl-2-methyl-1H-indol-4-yloxy)-2-bromo-3,3,3-trifluoro-propionamide]
[8]
  inhibition at 15 µM: 49.7%
[9]
  inhibition at 15 µM: 49%

## Cc1c(CC(N)=O)c2cc(OCc3ccc(C(=O)O)cc3)ccc2n1Cc1ccccc1
[7]
  IC50: 0.147 ± 0.009 µM
[5]
  IC50: 22.5 µM
[6]
  IC50: 7.5 µM

## Cc1c(C(=O)C(N)=O)c2c(OCC(=O)O)cccc2n1CCCCCCCCCCCCOc1ccc(C(C)(C)c2ccc(OCCCCCCCCCCCCn3c(C)c(C(=O)C(N)=O)c4c(OCC(=O)O)cccc43)cc2)cc1 [ILY-v-30, 2,2′-(1,1′-(12,12′-(4,4′-(propane-2,2-diyl)bis(4,1-phenylene))bis(oxy)bis(dodecane-12,1-diyl))bis(3-(2-amino-2-oxoacetyl)-2-methyl-1H-indole-4,1-diyl))bis(oxy)diacetic acid]
[1]
  effect in animals fed a low fat control diet containing test article: No or little effect
[2]
  effect in animals fed a low fat control diet containing test article: No or little effect
[4]
  clinical pathology data, treated groups vs vehicle control group: no differences

## Cc1c(C(=O)C(N)=O)c2c(OCC(=O)O)cccc2n1CCCCCCCCCCCCSCCCCCCCCSCCCCCCCCCCCCn1c(C)c(C(=O)C(N)=O)c2c(OCC(=O)O)cccc21 [ILY-v-26, 2,2′-(1,1′-(12,12′-(Octane-1,8-diylbis(sulfanediyl))bis(dodecane-12,1-diyl))bis(3-(2-amino-2-oxoacetyl)-2-methyl-1H-indole-4,1-diyl))bis(oxy)diacetic acid]
[1]
  effect in animals fed a low fat control diet containing test article: No or little effect
[2]
  effect in animals fed a low fat control diet containing test article: No or little effect
[4]
  clinical pathology data, treated groups vs vehicle control group: no differences

## CCc1c(CC(N)=O)c2cc(OCCCP(=O)(O)O)ccc2n1Cc1cccc(Cl)c1
[5]
  IC50: 46.2 µM

## Cc1c(CC(N)=O)c2c(OCCCC(=O)O)cccc2n1Cc1ccccc1
[5]
  IC50: 3.66 µM

## NC(=O)Cc1c(Br)n(Cc2ccccc2)c2ccc(OCCCP(=O)(O)O)cc12
[5]
  IC50: 6.2 µM
[6]
  IC50: 2.2 µM

## Cc1c(C(=O)C(N)=O)c2c(CCC(=O)O)cccc2n1Cc1ccccc1
[5]
  IC50: > 100 µM

## Cc1c(C(=O)C(N)=O)c2c(OCC(=O)O)cccc2n1CCCCCCCCCCCCN(CCCCCCCCCCCCn1c(C)c(C(=O)C(N)=O)c2c(OCC(=O)O)cccc21)Cc1ccccc1 [ILY-v-31, 2,2′-(1,1′-(12,12′-(benzylazanediyl)bis(dodecane-12,1-diyl))bis(3-(2-amino-2-oxoacetyl)-2-methyl-1H-indole-4,1-diyl))bis(oxy)diacetic acid]
[3]
  bioavailability: 5.15%
